Assay results as given in patent US7303762B2, “Absorption enhancers” (Axcess Limited, priority 2000, dated 2007).

Legend:
Caco-2 cells = assay: Trans-epithelial electrical resistance (TEER) across Caco-2 mono-layer; assay type: cell-based, human; conditions: four replicates
Method: Caco-2 cells (a cell-line derived from human colon adenocarcinoma) were grown as a confluent mono-layer on the surface of a porous membrane (pore size 0.4 μm, surface area 0.33 cm^2) separating two aqueous compartments, the upper compartment filled with 200 μl of culture medium, and the lower compartment containing 600 μl. Electrical resistance across the mono-layer was measured using an epithelial voltohmeter connected to electrodes inserted into the medium on either side of the mono-layer in the upper and lower compartments. This trans-epithelial electrical resistance (TEER) was measured immediately before, and 15 minutes after the addition of aromatic alcohols to the upper compartment (see Table 6 below). Use of the compounds diluted two to four-fold below those concentrations shown eliminates the falls in electrical resistance observed. Fall in TEER is considered indicative of the appearance of aqueous channels between cells, and is evidence that the mechanism of action of the aromatic alcohols tested, in exerting their absorption enhancing activity, is via opening or loosening of tight junctions between intestinal cells.

[1] = Plasma glucose after intra-jejunal administration of insulin capsules to conscious pigs; assay type: in vivo; conditions: one capsule
Method: Formulations prepared as described in examples 1 and 2 were administered (one capsule per animal) directly to the intestine of conscious pigs (40 to 60 kg) via an in-dwelling stoma implanted surgically in the jejunum. Before and after administration, at the intervals shown, blood samples were taken for analysis of blood glucose levels. As a control, capsules containing 200 iu of unformulated insulin were also administered intra-jejunally.

| Molecule | TEER 15 minutes after (Caco-2 cells; 15 minutes after addition to upper compartment, concentration 40 μl/ml) [ohm · cm^2] | TEER Before addition (Caco-2 cells; immediately before addition of agent) [ohm · cm^2] | Changes in plasma glucose ([1]; 15 minutes, + s.d.) | Changes in plasma glucose ([1]; 30 minutes, + s.d.) | Changes in plasma glucose ([1]; 45 minutes, + s.d.) | Changes in plasma glucose ([1]; 60 minutes, + s.d.) | Changes in plasma glucose ([1]; 90 minutes, + s.d.) | Changes in plasma glucose ([1]; 120 minutes, + s.d.) | Changes in plasma glucose ([1]; 180 minutes, + s.d.) | Changes in plasma glucose ([1]; 240 minutes, + s.d.) | Changes in plasma glucose ([1]; time −10 minutes) [mmol/L] |
| --- | --- | --- | --- | --- | --- | --- | --- | --- | --- | --- | --- |
| OCc1ccccc1 [Benzyl alcohol] | −1.6 ± 3.2 | 447.2 ± 76.9 | – | – | – | – | – | – | – | – | – |
| Control (unformulated insulin): capsules containing 200 iu of unformulated insulin administered intra-jejunally | – | – | 0.01 + 0.24 mmol/l | −0.05 + 0.21 mmol/l | −0.06 + 0.17 mmol/l | −0.32 + 0.23 mmol/l | −0.17 + 0.21 mmol/l | −0.22 + 0.32 mmol/l | −0.13 + 0.21 mmol/l | −0.34 + 0.32 mmol/l | 0.00 |
